Data on four molecules can be found in patent US7612208B2, “Crystalline form of the salt of 4-(3-chloro-4-(cyclopropylaminocarbonyl)aminophenoxy)-7-methoxy-6-quinolinecarboxamide or the solvate of the salt and a process for preparing the same” (Eisai R&D Management Co., Ltd., priority 2003, dated 2009).

The structures appear in SMILES notation.

What all share (type): physicochemical
Data set [1] can be described thus: Test for measuring dissolution rate (rotating disk method). Particulars: 2nd fluid pH 6.8, 37° C., 50 rpm. Here is the method:
The dissolution rates of the following crystals were measured under the conditions described below by the rotating disk method (see, J. H. Woods et al., J. Pharm. Soc., 54, 1068 (1955)): a crystalline form of the free carboxamide (obtained in Preparation Example 1), a crystalline form of the hydrochloride of the carboxamide (obtained in Example 1), a crystalline form of the hydrobromide of the carboxamide (obtained in Example 2), a crystalline form of the methanesulfonate (hereunder, referred to as “mesylate”) of the carboxamide (Form A) (obtained in Example 5), a crystalline form of the mesylate of the carboxamide (Form C) (obtained in Example 7) and a crystalline form of the ethanesulfonate (hereunder, referred to as “esylate”) (Form β) (obtained in Example 12). The dissolution rates were calculated based on a range in which linearity was maintained in the relation between concentration and time at the initial stage of dissolution.
(Rotating Disk Method Conditions)
• Solvent: “2nd fluid” (pH 6.8, 500 mL) as described in Japanese Pharmacopoeia 14th Edition, General Tests (disintegration test) • Temperature: 37° C. • Disk rotation speed: 50 rpm • Area of powder contacting with solvent on disk: 1 cm^2 • Sampling amount: approx. 1 mL (HPLC Conditions) • Column: Cadenza CD-18 (Imtakt Corporation; inner diameter 4.6 mm, Column length 100 mm, particle size 3 μm) • Column temperature: 40° C. • Flow rate: 1.0 mL/min • Mobile phase:
Concentration of solution B: 20% • Injection amount: 100 μL • Detection: ultraviolet absorbance photometer (wavelength: 252 nm) • Temperature of auto sampler: 25° C. [Results]

A short description of data set [2]: Evaluation of hygroscopicity (storage 1 week; water content, powder X-ray diffraction). The conditions noted are these: for change in appearance and crystal transition / change of water content / hygroscopicity: 25° C., relative humidity 75% or 93%; for crystal form: powder X-ray diffraction. Here is the method:
The hygroscopicity and solid stability of a crystalline form of the mesylate of the carboxamide (Form A) (obtained in Example 5), a crystalline form of the mesylate of the carboxamide (Form C) (obtained in Example 7), a crystalline form of the acetic acid solvate of the mesylate of the carboxamide (Form I) (obtained in Example 10) and a crystalline form of the esylate of the carboxamide (Form β) (obtained in Example 12) were measured under the following conditions.
1. Storage Conditions for the Hygroscopicity Test (Period: 1 Week)
a-1. 25° C., relative humidity 75%
b-1. 25° C., relative humidity 93%
Analysis was carried out according to “X-Ray Powder Diffraction Method” described in Japanese Pharmacopoeia 14th Edition, General Tests (B-614 to 619) under the following measurement conditions. • Apparatus: RINT-2000 (manufacture by Rigaku Denki K. K.) • X-ray: CuKα ray • Monochrometer: curved crystal monochrometer • Goniometer: vertical goniometer • Counter: scintillation counter • Applied voltage: 40 kV • Charging current: 200 mA • Scan speed: 5°/min • Scan axis: 2θ/θ • Scan range; 2θ+5° to 40° • Divergent slit: 0.5° • Scattering slit: 0.5° • Receiving slit: 0.3 mm 5. Measurement of Water Content
Measurement was carried out according to the Water Determination as described in Japanese Pharmacopoeia 14th Edition, General Tests (B-318 to 331) using 6 to 10 mg of each crystal.

The nature of data set [3]: Evaluation of solid stability (storage 2 weeks; total impurity by HPLC, water content, powder X-ray diffraction). The conditions noted are these: for changes in water content and appearance, crystal transition: all storage conditions. Here is the method:
2. Storage Conditions for the Solid Stability Test (Period: 2 Weeks) a-2. −20° C. (well closed) b-2. 25° C., light irradiation (1000 1×; shading with aluminum foil, well closed) c-2. 25° C., light irradiation (1000 1×; well closed) […]
e-2. 60° C. (well closed except the following case: slightly open in the case of a crystalline form of the acetic acid solvate of the mesylate (Form I))
3. Method for Measuring the Impurity Amount by HPLC
After storage, the sample solution was prepared by adding a mixed solvent of water and methanol (3:1) to each crystal at 0.1 mg/mL as final concentration.
Tests were conducted by the HPLC method for these sample solutions under the measurement conditions described below, and the eluted peak areas were measured to determine the total impurity amount by the relative area method (impurities of 0.05% or more were counted).
(Formula for Calculating Total Impurity Amount)
• Individual impurity amount (%)=(the peak area for the individual impurity)×100/{(the peak area for carboxamide)+(sum of the peak areas for impurities)} • Total impurity amount (%)=sum of individual impurity amounts (HPLC Measurement Conditions) • Column: Mightysil RP-18 GP (Kanto Kagaku; inner diameter 4.6 mm, column length 150 mm, particle size 3 μm) • Column temperature: constant temperature in vicinity of 40° C. • Flow rate: 1.0 mL/min • Mobile phase:
Solution B: CH3CN:H2O:HClO4=900:100:1 (v/v/v) • Gradient conditions […]
• Injection amount: 10 μL • Detection: ultraviolet absorbance photometer (wavelength: 252 nm) • Temperature of auto sampler: constant temperature in vicinity of 10° C. 4. Powder X-ray Diffraction […]
Measurement of Water Content

[4] abbreviates: a-1: 25° C., relative humidity 75%, 1 week.
[5] abbreviates: b-1: 25° C., relative humidity 93%, 1 week.
Where [6] appears, read: a-2: −20° C. (well closed), 2 weeks.
Where [7] appears, read: b-2: 25° C., light irradiation 1000 lx, shading with aluminum foil, well closed, 2 weeks.
[8] abbreviates: c-2: 25° C., light irradiation 1000 lx, well closed, 2 weeks.
[9] abbreviates: d-2: 40° C., relative humidity 75%, 2 weeks.
[10] abbreviates: e-2: 60° C., 2 weeks (well closed; slightly open for Form I).
The mark [11] stands for this setting: solid stability test, initial, HPLC relative area.

With `COc1cc2nccc(Oc3ccc(NC(=O)NC4CC4)c(Cl)c3)c2cc1C(N)=O.Cl` [hydrochloride, Hydrochloride of 4-(3-chloro-4-(cyclopropylaminocarbonyl)aminophenoxy)-7-methoxy-6-quinolinecarboxamide], in data set [1], the dissolution rate was determined as 4.7 μg/min/cm^2.
For `COc1cc2nccc(Oc3ccc(NC(=O)NC4CC4)c(Cl)c3)c2cc1C(N)=O.CS(=O)(=O)O` [mesylate (Form C), Methanesulfonate of 4-(3-chloro-4-(cyclopropylaminocarbonyl)aminophenoxy)-7-methoxy-6-quinolinecarboxamide], in data set [2] (1 week), the “change in appearance and crystal transition” value was “Neither remarkable change in appearance nor crystal transition was observed”. Besides, in data set [2] (1 week), the “change of water content” value is “did not change remarkably”. Also, the hygroscopicity entry in data set [2] (1 week) is on record as “not observed”. The water content amounted to 0.6% in data set [2] (setting [4]); 0.7% in data set [2] (setting [5]); 0.7% in data set [2] (hygroscopicity test, initial); 0.7% in data set [3] (setting [6]); 0.8% in data set [3] (setting [7]); 0.7% in data set [3] (setting [8]). Moreover, the water content in data set [3] (setting [9]) was found to be 0.6%; in data set [3] (setting [10]), 0.5%; in data set [3] (solid stability test, initial), 0.7%. Moreover, the dissolution rate in data set [1] was 15.5 μg/min/cm^2. Besides, the total impurity in data set [3] (setting [6]) worked out at 2.10%; in data set [3] (setting [7]) it was 2.09%; in data set [3] (setting [8]), 2.22%; in data set [3] (setting [9]) it was 2.06%; in data set [3] (setting [10]), 2.18%; in data set [3] (setting [11]), 2.11%. For the same molecule, the “changes in water content and appearance, crystal transition” value in data set [3] (solid stability test, 2 weeks) is “neither remarkable changes in water content and appearance nor crystal transition was observed”.
Take `CC(=O)O.COc1cc2nccc(Oc3ccc(NC(=O)NC4CC4)c(Cl)c3)c2cc1C(N)=O.CS(=O)(=O)O` [Acetic Acid Solvate of the Methanesulfonate of 4-(3-chloro-4-(cyclopropylaminocarbonyl)aminophenoxy)-7-methoxy-6-quinolinecarboxamide]: the “change in appearance and crystal transition” value in data set [2] (1 week) is reported as “transition to a crystalline form of the mesylate (Form C)”. In addition, in data set [2] (1 week), the “change of water content” value is “a decrease in water content was observed”. Moreover, the water content turned out to be 0.6% in data set [2] (setting [4]); 0.8% in data set [2] (setting [5]); 2.9% in data set [2] (hygroscopicity test, initial); 3.1% in data set [3] (setting [6]); 3.1% in data set [3] (setting [7]); 2.9% in data set [3] (setting [8]). Besides, the water content in data set [3] (setting [9]) was 0.9%; in data set [3] (setting [10]) it was 0.3%; in data set [3] (solid stability test, initial) it was 2.9%. The crystal transition result in data set [3] (40° C. and relative humidity of 75%, 2 weeks) is on record as “transition to a crystalline form of the mesylate (Form C)”; in data set [3] (60° C. in a slightly opened container, 2 weeks), “transition to a crystalline form of the mesylate (Form B)”. For the same molecule, the total impurity amounted to 0.67% in data set [3] (setting [6]); 0.66% in data set [3] (setting [7]); 0.87% in data set [3] (setting [8]); 0.61% in data set [3] (setting [9]); 0.84% in data set [3] (setting [10]); 0.62% in data set [3] (setting [11]). In addition, the “crystal transition, changes in total impurity amount, water content and appearance” value in data set [3] (stored in a well closed container, 2 weeks) is “neither crystal transition nor remarkable changes in total impurity amount, water content and appearance were observed”.
With `CCS(=O)(=O)O.COc1cc2nccc(Oc3ccc(NC(=O)NC4CC4)c(Cl)c3)c2cc1C(N)=O` [esylate (Form β), Ethanesulfonate of 4-(3-chloro-4-(cyclopropylaminocarbonyl)aminophenoxy)-7-methoxy-6-quinolinecarboxamide], the “change in appearance and crystal transition” value in data set [2] (1 week) was “Neither remarkable change in appearance nor crystal transition was observed”. The “change of water content” value in data set [2] (1 week) is “did not change remarkably”. The hygroscopicity result in data set [2] (1 week) is “not observed”. In addition, the water content in data set [2] (setting [4]) came out at 1.7%; in data set [2] (setting [5]) it was 1.4%; in data set [2] (hygroscopicity test, initial), 1.7%; in data set [3] (setting [6]), 2.0%; in data set [3] (setting [7]), 2.5%; in data set [3] (setting [8]) it was 2.1%. Also, the water content was determined as 2.0% in data set [3] (setting [9]); 2.2% in data set [3] (setting [10]); 1.7% in data set [3] (solid stability test, initial). Further, the crystal form entry in data set [2] (setting [4]) is on record as “β”; in data set [2] (setting [5]), “β”; in data set [2] (hygroscopicity test, initial), “β”; in data set [3] (setting [6]), “β”; in data set [3] (setting [7]), “β”; in data set [3] (setting [8]) it was “β”. For the same molecule, the crystal form entry is on record as “β” in data set [3] (setting [9]); “β” in data set [3] (setting [10]); “β” in data set [3] (solid stability test, initial, powder X-ray diffraction). This molecule also registered a dissolution rate in data set [1] of 18.5 μg/min/cm^2. For the same molecule, the total impurity stood at 0.48% in data set [3] (setting [6]); 0.46% in data set [3] (setting [7]); 0.49% in data set [3] (setting [8]); 0.48% in data set [3] (setting [9]); 0.51% in data set [3] (setting [10]); 0.55% in data set [3] (setting [11]). Also, in data set [3] (solid stability test, 2 weeks), the “changes in water content and appearance, crystal transition” value was “neither remarkable changes in water content and appearance nor crystal transition was observed”.
